The record followed here is patent US20210315960A1, “COMPOSITIONS OF AZADIRACHTA INDICA AND METHODS OF TREATING CANCER” (Board of Regents, The University of Texas System, priority 2018, published 2021).

In general, IC50 refers to the concentration that inhibits the measured activity by half.

This assay concerns SCC4, HSC3, Cal27 OSCC cell lines. Briefly: MTT assay, human OSCC cell lines. The note with it: 8 h and 24 h treatments, read-out: IC50 (cell growth). It is filed as cell-based. On the technique in general: Tetrazolium dyes change colour on reduction, which living cells bring about.

Protocol: SCC4 and Cal27 oral cancer cells are obtained from ATCC and maintained in DMEM supplemented with 10% fetal bovine serum and 1% penicillin/streptomycin at 37° C. with 5% CO2. For the SCC4 cells, hydrocortisone was provided at 400 ng/ml in the completed media. […] Doses to be tested will bracket the IC50s for each cell line. Control cells will receive DMSO. […] Subsequently, 10 μl of 12 mM MTT (Life Technologies; Carlsbad, Calif.) solution was added to each well, incubated for 4 hr at 37° C., and neutralized with DMSO. Absorbance was measured at 540 nm and percent viability was calculated.

With `Cc1ccc(-c2cc(C(F)(F)F)nn2-c2ccc(S(N)(=O)=O)cc2)cc1` [Celecoxib], the IC50 was determined as 75 µM.
